In general, pKd refers to the negative decadic logarithm of the Kd, by convention in mol/L. Lower therefore signals a high Kd.

Structures are written as SMILES. pKd: −log10 of the molar value.

Experiment [1] has as its system ornithine decarboxylase (ODC). The experiment can be described thus: ODC assay: inhibition of TPA induction of ornithine decarboxylase activity. It counts as in vivo. Particulars: for IC60: concentration of the test compound which causes 60% inhibition in the ODC assay. The text has this: A classic measure of retinoic acid activity involves measuring the effects of retinoic acid on ornithine decarboxylase. […] That reference discloses that ornithine decarboxylase (ODC) activity increased precedent to polyamine biosynthesis. It has been established elsewhere that increases in polyamine synthesis can be correlated or associated with cellular proliferation. Thus, if ODC activity could be inhibited, cell hyperproliferation could be modulated. Although all cases for ODC activity increases are unknown, it is known that 12-0-tetradecanoylphorbol-13-acetate (TPA) induces ODC activity. Retinoic acid inhibits this induction of ODC activity by TPA.

Another experiment concerns the target T1, RARα (Homo sapiens, UniProt P10276).
T1 sequence (P10276 1-462): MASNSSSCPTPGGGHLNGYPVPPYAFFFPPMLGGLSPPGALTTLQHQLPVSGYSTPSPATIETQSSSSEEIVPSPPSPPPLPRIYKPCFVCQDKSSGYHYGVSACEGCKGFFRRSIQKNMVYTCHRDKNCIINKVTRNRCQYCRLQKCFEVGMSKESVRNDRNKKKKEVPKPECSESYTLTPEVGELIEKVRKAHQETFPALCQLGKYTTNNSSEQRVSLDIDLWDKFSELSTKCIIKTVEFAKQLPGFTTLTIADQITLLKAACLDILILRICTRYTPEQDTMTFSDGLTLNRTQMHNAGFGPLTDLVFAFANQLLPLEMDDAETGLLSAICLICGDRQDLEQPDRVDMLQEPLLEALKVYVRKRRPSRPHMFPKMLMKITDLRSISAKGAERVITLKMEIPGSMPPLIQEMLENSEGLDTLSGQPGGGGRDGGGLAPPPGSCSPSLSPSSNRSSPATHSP
Kind of experiment: Ligand binding assay. An excerpt: (§1) Other assays described below, measure the ability of the compounds of the present invention to bind to, and/or activate various retinoid receptor subtypes. When in these assays a compound binds to a given receptor subtype and activates the transcription of a reporter gene through that subtype, then the compound is considered an agonist of that receptor subtype. […] In the below described assays the ability of the compounds to bind to RARα, RARβ, RARγ, RXRα, RXRβ and RXRΓ receptors, and the ability or inability of the compounds to activate transcription of a reporter gene through these receptor subtypes can be tested.
(§2) A holoreceptor transactivation assay and a ligand binding assay which measure the antagonist/agonist like activity of the compounds of the invention, or their ability to bind to the several retinoid receptor subtypes, respectively, are described in published PCT Application No. WO WO93/11755 (particularly on pages 30-33 and 37-41) published on Jun. 24, 1993, the specification of which is also incorporated herein by reference. A description of the holoreceptor transactivation assay is also provided below.
(§3) CV1 cells (5,000 cells/well) were transfected with an RAR reporter plasmid MTV-TREp-LUC (50 ng) along with one of the RAR expression vectors (10 ng) in an automated 96-well format by the calcium phosphate procedure of Heyman et al. Cell 68, 397-406, (1992). For RXRα and RXRγ transactivation assays, an RXR-responsive reporter plasmid CRBPII-tk-LUC (50 ng) along with the appropriate RXR expression vectors (10 ng) was used substantially as described by Heyman et al. above, and Allegretto et al. J. Biol. Chem. 268, 26625-26633. For RXRβ transactivation assays, an RXR-responsive reporter plasmid CPRE-tk-LUC ([…]) along with RXRβ expression vector ([…]) was used as described in above. These reporters contain DRI elements from human CRBPII and certain DRI elements from promoter, respectively. (see Mangelsdorf et al. The Retinoids: Biology, Chemistry and Medicine, pp 319-349, Raven Press Ltd., New York and Heyman et al., cited above) (1, 8). A β-galactosidase (50 ng) expression vector was used as an internal control in the transfections to normalize for variations in transfection efficiency. The cells were transfected in triplicate for 6 hours, followed by incubation with retinoids for 36 hours, and the extracts were assayed for luciferase and β-galactosidase activities. The detailed experimental procedure for holoreceptor transactivations has been described in Heyman et al. above, and Allegretto et al. cited above. The results obtained in this assay are expressed in EC50 numbers, as they are also in the chimeric receptor transactivation assay. The Heyman et al. Cell 68, 397-406, Allegretto et al. J. Biol. Chem. 268, 26625-26633, and Mangelsdorf et al. The Retinoids: Biology, Chemistry and Medicine, pp 319-349, Raven Press Ltd., New York, are expressly incorporated herein by reference. The results of ligand binding assay are expressed in Kd numbers. (See Cheng et al. Biochemical Pharmacology Vol. 22 pp 3099-3108, expressly incorporated herein by reference.)

Another experiment concerns the target T2, RARγ (Homo sapiens, UniProt P13631).
T2 sequence (P13631 1-454): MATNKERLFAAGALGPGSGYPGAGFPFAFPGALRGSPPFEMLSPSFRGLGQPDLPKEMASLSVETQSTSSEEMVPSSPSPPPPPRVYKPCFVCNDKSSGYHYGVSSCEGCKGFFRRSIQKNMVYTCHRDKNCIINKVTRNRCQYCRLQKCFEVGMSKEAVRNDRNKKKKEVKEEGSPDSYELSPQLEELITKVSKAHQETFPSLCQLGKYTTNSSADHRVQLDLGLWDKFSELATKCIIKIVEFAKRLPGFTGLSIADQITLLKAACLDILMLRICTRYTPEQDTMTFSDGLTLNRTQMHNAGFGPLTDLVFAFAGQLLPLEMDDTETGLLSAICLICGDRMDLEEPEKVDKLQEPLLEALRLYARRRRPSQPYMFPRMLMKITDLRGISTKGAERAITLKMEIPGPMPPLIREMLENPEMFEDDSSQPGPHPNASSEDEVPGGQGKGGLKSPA
The experiment can be described thus: Ligand binding assay.
From the text: as §1, §2, §3

For a further experiment, the target named is T3, RARβ (Homo sapiens, UniProt P10826).
T3 sequence (P10826 1-455): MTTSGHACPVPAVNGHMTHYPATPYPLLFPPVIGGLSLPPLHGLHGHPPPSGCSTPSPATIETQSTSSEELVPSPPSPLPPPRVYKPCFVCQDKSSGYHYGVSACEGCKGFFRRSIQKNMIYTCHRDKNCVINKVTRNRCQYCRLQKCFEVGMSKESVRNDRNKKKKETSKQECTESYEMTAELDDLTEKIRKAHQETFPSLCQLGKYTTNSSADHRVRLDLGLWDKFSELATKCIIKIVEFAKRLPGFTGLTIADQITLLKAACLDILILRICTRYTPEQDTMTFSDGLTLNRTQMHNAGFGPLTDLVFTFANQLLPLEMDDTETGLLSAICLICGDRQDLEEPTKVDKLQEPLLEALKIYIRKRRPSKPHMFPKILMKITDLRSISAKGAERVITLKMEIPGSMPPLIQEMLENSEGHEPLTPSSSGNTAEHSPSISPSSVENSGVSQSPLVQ
Kind of experiment: Ligand binding assay.
From the text: as §1, §2, §3

`CCOC(=O)c1ccc(/C=C/c2ccc3c(c2)C(=C(CC)CC)CCC3(C)C)cc1` [Compound A27, Ethyl (E)-4-[2-(7,8-dihydro-5,5-dimethyl-8(7H)-(pentyliden-3-yl)-naphthalen-2-yl)ethenyl]-benzoate] displayed an IC60 in experiment [1] of 0.7 nmols.
With `CC1(C)CC=C(Sc2ccccc2)c2cc(/C=C/c3ccc(C(=O)O)cc3)ccc21` [Compound A18, (E)-4-[2-(5,6-dihydro-5,5-dimethyl-8-(phenylthio)-naphthalen-2-yl)ethenyl] benzoic acid], the pKd is 6.27 on RARα, 6.79 on RARγ and 6.71 on RARβ.
In experiment [1], `CCOC(=O)c1ccc(/C=C/c2ccc3c(c2)C(=O)CCC3(C)C)cc1` [Compound A2, Ethyl (E)-4-[2-(5,6-dihydro-5,5-dimethyl-naphthalen-8(7H)-one-2-yl)ethenyl]-benzoate] registered an IC60 of 27 nmols.
The molecule `CCOC(=O)/C=C(C)/C=C/C=C(\C)c1ccc2c(c1)C(OS(=O)(=O)C(F)(F)F)=CCC2(C)C` [Compound C14, Ethyl 7-[4,4-dimethyl-3,4,-dihydronaphthalen-1-trifluoromethylsulfonyloxy-7-yl]-3,7-dimethyl-hept-2(E), 4(E), 6(E)trienoate] gave an IC60 in experiment [1] of 4 nmols.
Same read-out and setting: the same measure for `CCON=C1CCC(C)(C)c2ccc(/C(C)=C/C=C/C(C)=C/C(=O)OCC)cc21` [Compound C22b, Ethyl 7-[4,4-dimethyl-3,4-dihydro-1(2H)-anti-(O-ethyl oxime)-naphth-7-yl]3,7-dimethyl-hepta-2(E),4(E),6(E)-trienoate]: 10 nmols.
Same read-out and setting: then `CCOC(=O)c1ccc(NC(=O)c2ccc3c(c2)C(C(C)(C)C)=CCC3(C)C)cc1` [Compound E79, Ethyl 4-[(5 .5-dimethyl-5,6-dihydro-8-(1,1-dimethylethyl)-2-naphthalenyl)carboxamido]-benzoate], with 5.3 nmols.
On to `CO/N=C1\CCC(C)(C)c2ccc(N=Nc3ccc(C(=O)O)cc3)cc21` [Compound D4, 4-[(8(7H)-Anti-(O-methyl oxime)-5,5-dimethyl-5,6-dihydronaphthalen-2-yl)azo]benzoic Acid], for which the pKd was 6.44 on RARγ and 6.88 on RARβ.
As for `CCOC(=O)c1ccc(/C=C/c2ccc3c(c2)C(Sc2ccccc2)=CCC3(C)C)cc1` [Compound A16, Ethyl (E)-4-[2-(5,6-dihydro-5,5-dimethyl-8-(phenylthio)-naphthalenyl)ethenyl] benzoate], in experiment [1] (concentration of the test compound which causes 80% inhibition in the ODC assay, cell marked (IC80)), the IC80 was 4.3 (IC80) nmols.
With `CCOC(=O)c1ccc(/C=C/c2ccc3c(c2)C(C2SCCCS2)CCC3(C)C)cc1` (stereo not drawn) [Compound A23, Ethyl (E)-4-[-2-(5,6,7,8-tetrahydro-5,5-dimethyl-8-(1,3-dithian-2-yl)naphthalen-2-yl)ethenyl] benzoate], the IC60 in experiment [1] is given as 43.7 nmols.
In experiment [1], `CCOC(=O)c1ccc(NC(=O)c2ccc3c(c2)C(OC2CCCCO2)CCC3(C)C)cc1` (single isomer, unassigned) [Compound E72b, Ethyl 4-[5,6,7,8-tetrahydro-8(R or S)-(2′(S or R)tetrahydropyranoxy)5,5-dimethylnaphthalene-2-yl)carboxamido]benzoate] showed an IC60 of 18 nmols.
The same measure, in the same setting: the same measure for `CCOC(=O)c1ccc(OC(=O)c2ccc3c(c2)C(S(=O)(=O)c2ccccc2)=CCC3(C)C)cc1` [Compound E24, Ethyl 4-[{(5,5-dimethyl-8-(phenylsulfonyl)-5,6dihydronaphthalen-2-yl)carbonyl}oxy]benzoate]: 8.3 nmols; for `CCOC(=O)c1ccc(NC(=O)c2ccc3c(c2)C(=C(C)C)CCC3(C)C)cc1` [Compound E16]: 88.4 nmols.
Same read-out and setting: the same measure for `CCOC(=O)c1ccc(OC(=O)c2ccc3c(c2)C(OC2CCCCO2)CCC3(C)C)cc1` (single isomer, unassigned) [Compound E56a, Ethyl 4-[5,6,7,8-tetrahydro-8(R or S)-(2′(R or S)-tetrahydropyranoxy)-5,5-dimethyl-2-napthoyloxy]benzoate]: 3.1 nmols; for `CCOC(=O)c1ccc(/N=N/c2ccc3c(c2)/C(=N/OC)CCC3(C)C)cc1` [Compound D3, Ethyl 4-[(8(7H)-anti-(O-methyl oxime)-5,5-dimethyl-5,6-dihydronaphthalen-2-yl)azo]benzoate]: 8.4 nmols.
On to `CCOC(=O)c1ccc(OC(=O)c2ccc3c(c2)C(=C(C)C)CCC3(C)C)cc1` [Compound E15, Ethyl 4-[{(5,5-dimethyl-8(7H-(propyliden-2-yl)-5.6-dihydronaphthalen-2-yl)}carbonyl}oxy]benzoate], for which the IC60 in experiment [1] stood at 24.7 nmols.
The same measure, in the same setting: then `CCOC(=O)/C=C(C)/C=C/C=C(\C)c1ccc2c(c1)C(c1cccs1)=CCC2(C)C` [Compound C15, Ethyl 7-[4,4-dimethyl-3,4,-dihydronaphthalen-1-(2-thienyl)-7-yl]-3,7-dimethyl-hept-2(E), 4(E), 6(E)trienoate], with 14.5 nmols.
The same measure, in the same setting: then `CCOC(=O)c1ccc(N=Nc2ccc3c(c2)C(OCOC)CCC3(C)C)cc1` (racemic) [Compound D6, (+/−) Ethyl 4-[(5,5-dimethyl-8-(methoxymethyloxy)-5,6,7,8-tetrahydronaphthalen-2-yl)azo]benzoate], with 1.9 nmols; and `CCON=C1CCC(C)(C)c2ccc(/C=C/c3ccc(C(=O)OCC)cc3)cc21` [Compound A5, Ethyl (E)-4-[2-(5,5-dimethyl-5,6,-dihydro-8(7H)-anti-(O-ethyl oxime)-naphthalen-2-yl)ethenyl]-benzoate], with 10.3 nmols.

The record behind these values is patent US6465663B2, “O- or S-substituted tetrahydronaphthalene derivatives having retinoid and/or retinoid antagonist-like biological activity” (Allergan, Inc., priority 1996, dated 2002).
